Assay results from US20110152362A1, “METHODS OF TREATING EPILEPTOGENESIS AND EPILEPSY” (priority 2004, published 2011).
Where “and” joins values, the source holds several entries; their conditions need not be identical. Equal entries are not always repeated.

Columns and labels:
[1] = tested on: rats subjected to li-pilo SE; test: Example 2: mortality over the first 48 h after Li-pilo SE; format: in vivo, rat; parameters: concentration or dose not given beside the values; conditions: DZP
[2] = tested on: rats subjected to Li-pilo induced SE; test: Example 1: Timm staining, mossy fiber sprouting in hippocampus; format: in vivo, rat; conditions: pilo-DZP rats
Experimental: At 2 months after the onset of spontaneous recurrent seizures, mossy fiber sprouting was examined on rats in the chronic period exposed to the test compound or DZP and in 3 saline-saline rats. Animals were deeply anaesthetized and perfused transcardially with saline followed by 100 ml of 1.15% (w/v) Na2S in 0.1 M phosphate buffer, and 100 ml of 4% (v/v) formaldehyde in 0.1 M phosphate buffer. Brains were removed from skull, post-fixed in 4% formaldehyde during 3-5 h and 40 μm sections were cut on a sliding vibratome and mounted on gelatin-coated slides.
The following day, sections were developed in the dark in a 26° C. solution of 50% (w/v) arabic gum (160 ml), sodium citrate buffer (30 ml), 5.7% (w/v) hydroquinone (80 ml) and 10% (w/v) silver nitrate (2.5 ml) during 40-45 min. The sections were then rinsed with tap water at 40° C. during at least 45 min, rinsed rapidly with distilled water and allowed to dry. They were dehydrated in ethanol and coverslipped.
Mossy fiber sprouting was evaluated according to criteria previously described in dorsal hippocampus (Cavazos et al., 1991, J Neurosci 11:2795-2803.), which are follows: 0—no granules between the tips and crest of the DG; 1—sparse granules in the supragranular region in a patchy distribution between the tips and crest of DG; 2—more numerous granules in a continuous distribution between the tips and crest of DG; 3—prominent granules in a continuous pattern between tips and crest, with occasional patches of confluent granules between tips and crest; 4—prominent granules that form a confluent dense laminar band between tips and crest and 5—confluent dense laminar band of granules that extends into the inner molecular layer.

[3] = tested on: rats subjected to Li-pilo induced SE; test: Example 1: quantification of cell densities in hippocampus, thalamus and cortex after Li-pilo SE; format: in vivo, rat; conditions: pilo-DZP rats
Experimental: (§1) The effects of increasing doses of the Test Compound were studied on 3 groups of rats. The animals of the first group received 10 mg/kg of the test compound, i.p., 1 h after the onset of SE (pilo-TC10) while the animals of groups 2 and 3 received 30 and 60 mg/kg of the Test Compound (pilo-TC30 and pilo-TC60), respectively.
(§2) The control group received saline instead of pilocarpine and the Test Compound (saline-saline). […] Pilo-DZP received a second injection of 1 mg/kg DZP on the day of SE at about 10 h after the first one. Thereafter, Pilo-DZP and saline-saline rats received twice daily an equivalent volume of saline.
Quantification of cell densities was performed at 6 days after SE on 8 pilo-DZP, 8 pilo-TC10, 7 pilo-TC30, 7 pilo-TC60, and 6 saline-saline rats. […] Counts involved only cells larger than 10 μm, smaller ones being considered as glial cells.
For the comparison of the characteristics of SE in pilo-saline and pilo-test compound animals, a non-paired Student's t-test was used. The comparison between the number of rats seizing in both groups was performed by means of a Chi square test. For neuronal damage, statistical analysis between groups was performed using ANOVA followed by a Fisher's test for multiple comparisons using the Statview software (Fisher R A, 1946a, Statistical Methods for Research Workers (10th edition) Oliver & Boyd, Edinburgh; Fisher R A, 1946b, The Design of Experiments (4th edition) Oliver & Boyd, Edinburgh)

[4] = tested on: rats subjected to li-pilo SE; test: Example 2: latency to and frequency of spontaneous seizures (video recording); format: in vivo, rat; conditions: DZP group, 2.5 mg/kg i.m.; 2.5 mg/kg
Experimental: The effects of DZP and the 4 doses of TC on epileptogenesis were investigated by daily video recording of the animals for 10 h per day. Video recording was performed for 4 weeks during which the occurrence of the first seizure was noted as well as the total number of seizures over the whole period. Animals were then taken off the video recording system and kept for 4 additional weeks in our animal facilities before they were sacrificed after a total period of 8 weeks of epilepsy.

[5] = tested on: rats subjected to Li-pilo induced SE; test: Example 1: latency to and frequency of spontaneous recurrent seizures (SRS), lithium-pilocarpine model; format: in vivo, rat
Experimental: (§3) The bilateral EEG cortical activity was recorded during the whole duration of SE and behavioral changes were noted.
as §1, §2
The effects of the test compound on the EEG and on the latency to occurrence of SRS were investigated by daily video recording of the animals for 10 h per day and the recording of the electrographic activity twice a week for 8 h.
To calculate the frequency of SRS in pilocarpine-exposed rats, the seizure severity and distinguished stage III (clonic seizures of facial muscles and anterior limbs) and stage IV-V seizures (rearing and falling) was measured. The frequency of stage III SRS per week in pilo-DZP and pilo-test compound rats was variable amongst the groups. It was low, constant in the pilo-DZP and pilo-TC60 (with early SRS onset) groups during the first 3 weeks and had disappeared during the 4th week in the pilo-DZP group. […] The frequency of more severe stage IV-V SRS was highest during the first week in most groups, except pilo-TC30 and TC60 with late seizure onset where the SRS frequency was constant over the whole 4 weeks in TC30 group and over the first two weeks in the pilo-TC60 group with late SRS onset in which no stage IV-V seizures where no seizures recorded after the second week.

[6] = tested on: rats subjected to Li-pilo induced SE; test: Example 1: mortality induced by lithium-pilocarpine status epilepticus; format: in vivo, rat; conditions: pilo-DZP, 2 mg/kg i.m. 1 h after onset of SE
Experimental: as §3, §1, §2

[7] = tested on: rats subjected to li-pilo SE; test: Example 2: quantification of cell densities 14 days after li-pilo SE;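 note: Thionine-stained 20 µm brain sections, neurons with cell bodies above 10 µm counted, value is the mean of 12 fields per structure from three adjacent sections, both sides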
Experimental: All rats received lithium chloride (3 meq/kg, i.p., Sigma, St Louis, Mo., U.S.A.) and about 20 h later, all animals received also methylscopolamine bromide (1 mg/kg, s.c., Sigma) that was administered to limit the peripheral effects of the convulsant. […] The effects of increasing doses of TC were studied in 5 groups of rats. […] The control group received vehicle instead of pilocarpine and TC.
For neuronal counting, animals were deeply anesthetized with 1.8 g/kg pentobarbital (Dolethal®, Vetoquinol, Lure, France). Brains were then removed and frozen. Serial 20 μm slices were cut in a cryostat, air-dried during several days before thionine staining. […] The grid of counting was placed on a well defined area of the cerebral structure of interest and counting was carried out with a microscopic enlargement of 200- or 400-fold defined for each single cerebral structure. Cell counts were performed twice on each side of three adjacent sections for each region by a single observer unaware of the animal's treatment. The number of cells obtained in the 12 counted fields in each cerebral structure was averaged. This procedure was used to minimize the potential errors that could result from double counting leading to overestimation of cell numbers. […] Counts involved only neurons with cell bodies larger than 10 μm. Cells with small cell bodies were considered as glial cells and were not counted.
For neuronal damage and epileptogenesis, statistical analysis between groups was performed by means of a one-way analysis of variance followed by a post-hoc Dunnett or Fisher test using the Statistica software.

[8] = pilo-DZP (DZP 2.5 mg/kg i.m.), 14 days after li-pilo SE

CN1C(=O)CN=C(c2ccccc2)c2cc(Cl)ccc21 [DZP, diazepam, reference compound]
mortality over the first 48 h after SE ([1]; group for cell counting at 14 days): 36%
mortality over the first 48 h after SE ([1]; group for latency to SRS and late cell counting): 7%
Timm score in the upper blade of the dentate gyrus, mean [2]: 2.8±0.8
cell loss vs saline-saline, CA1 pyramidal cell layer [3]: 70% and 75%
cell loss vs saline-saline, CA3a [3]: 54%
cell loss vs saline-saline, CA3b [3]: 31%
cell loss vs saline-saline, hilus of dentate gyrus [3]: 73%
cell loss vs saline-saline, lateral thalamic nucleus [3]: 91%
cell loss vs saline-saline, mediodorsal thalamic nucleus [3]: 56%
cell loss vs saline-saline, piriform cortex layer II [3]: 53%
cell loss vs saline-saline, ventral entorhinal cortex layers III-IV [3]: 44%
cell loss, piriform cortex layers III-IV [3]: total
damage vs saline-saline, dorsal entorhinal cortex layer II [3]: 9%
damage vs saline-saline, dorsal entorhinal cortex layers III-IV [3]: 15%
damage, ventral entorhinal cortex layer II [3]: totally preserved
Latency to the first spontaneous seizure [4]: 15.5 ± 2.3 days and 15.5 ± 2.34 days
frequency of stage IV-V SRS ([5]; first week, pilo-DZP group): 11.3 SRS per week
latency to SRS ([5]; pilo-DZP rats): 18.2 ± 6.9 days
mortality during the first 48 h after SE [6]: 23%
neurons surviving in entorhinal cortex, dorsal and ventral ([7]; DZP group, 14 days after SE): 27-81%
damage vs control, dorsal entorhinal cortex layer II ([7]; DZP rats, 14 days after SE): 18%
damage vs control, dorsal entorhinal cortex layers III-IV ([7]; DZP rats, 14 days after SE): 24%
damage vs control, ventral entorhinal cortex layer II ([7]; DZP rats, 14 days after SE): 22% and 19%
damage vs control, ventral entorhinal cortex layers III/IV ([7]; DZP rats, 14 days after SE): 74% and 73%
neuronal damage, amygdala central nucleus ([7]; DZP rats, 14 days after SE): no neuronal damage
neuronal drop out vs control, CA1 pyramidal cell layer ([7]; DZP rats, 14 days after SE): 85%
neuronal drop out vs control, amygdala basolateral nucleus ([7]; DZP rats, 14 days after SE): 73%
neuronal drop out vs control, amygdala medial dorsal anterior nucleus ([7]; DZP rats, 14 days after SE): 53%
neuronal drop out vs control, thalamus central medial nucleus ([7]; DZP rats, 14 days after SE): 34%
neuronal drop out vs control, thalamus dorsolateral medial dorsal nucleus ([7]; DZP rats, 14 days after SE): 40%
neuronal drop out vs control, thalamus mediodorsal central nucleus ([7]; DZP rats, 14 days after SE): 18%
neuronal drop out vs control, thalamus mediodorsal lateral nucleus ([7]; DZP rats, 14 days after SE): 24%
neuronal loss vs control, CA3 region ([7]; DZP rats, 14 days after SE): 40%
neuronal loss vs control, amygdala medial ventral posterior nucleus ([7]; DZP rats, 14 days after SE): 38%
neuronal loss vs control, hilus of dentate gyrus ([7]; DZP rats, 14 days after SE): 65% and 66%
neuronal loss vs control, piriform cortex dorsal layer II ([7]; DZP rats, 14 days after SE): 66%
neuronal loss vs control, piriform cortex layer III ([7]; DZP rats, 14 days after SE): 94%
neuronal loss vs control, piriform cortex ventral layer II ([7]; DZP rats, 14 days after SE): 89%
neuronal loss vs control, thalamus mediodorsal nucleus ([7]; DZP rats, 14 days after SE): 49%
neuronal loss vs control, ventral lateral division of the dorsolateral nucleus ([7]; DZP rats, 14 days after SE): 90%
number of neuronal cell bodies: Amygdala Basolateral [7, 8]: 12.8 ± 5.3
number of neuronal cell bodies: Amygdala Medial, dorsal anterior [7, 8]: 40.0 ± 2.5
number of neuronal cell bodies: Amygdala Medial, ventral posterior [7, 8]: 21.8 ± 2.4
number of neuronal cell bodies: Cerebral cortex Entorhinal, layer II, dorsal [7, 8]: 23.5 ± 0.7
number of neuronal cell bodies: Cerebral cortex Entorhinal, layer II, ventral [7, 8]: 21.7 ± 1.3
number of neuronal cell bodies: Cerebral cortex Entorhinal, layer III/IV, dorsal [7, 8]: 22.3 ± 0.5
number of neuronal cell bodies: Cerebral cortex Entorhinal, layer III/IV, ventral [7, 8]: 7.7 ± 2.3
number of neuronal cell bodies: Cerebral cortex Piriform, layer II, dorsal [7, 8]: 12.6 ± 4.2
number of neuronal cell bodies: Cerebral cortex Piriform, layer II, ventral [7, 8]: 3.6 ± 0.7
number of neuronal cell bodies: Cerebral cortex Piriform, layer III [7, 8]: 1.2 ± 1.2
number of neuronal cell bodies: Hippocampus CA1 area [7, 8]: 10.9 ± 1.9
number of neuronal cell bodies: Hippocampus CA3 area [7, 8]: 31.3 ± 2.9
number of neuronal cell bodies: Hippocampus Hilus [7, 8]: 33.5 ± 3.0
number of neuronal cell bodies: Thalamus Central medial [7, 8]: 74.2 ± 7.4
number of neuronal cell bodies: Thalamus Dorsolateral, medial, dorsal [7, 8]: 61 ± 6.3
number of neuronal cell bodies: Thalamus Dorsolateral, ventral lateral [7, 8]: 9.7 ± 2.5
number of neuronal cell bodies: Thalamus Mediodorsal central [7, 8]: 26.3 ± 1.8
number of neuronal cell bodies: Thalamus Mediodorsal lateral [7, 8]: 19.6 ± 0.8
number of neuronal cell bodies: Thalamus Mediodorsal medial [7, 8]: 16.4 ± 1.9
